Assay results reported in ChEMBL document CHEMBL5236591, “Targeting Gatekeeper Mutations for Kinase Drug Discovery” (J Med Chem, 2022).

What was measured:
[1] = target: Mast/stem cell growth factor receptor Kit (Homo sapiens, UniProt P10721); assay: Inhibition of wild type KIT (unknown origin)
[2] = target: Fibroblast growth factor receptor 4 (Mus musculus, UniProt Q03142); assay: Inhibition of FGFR4 in mouse BaF3 cells; assay type: cell-based
[3] = Antiproliferative activity against mouse 32D cells expressing FLT3-D835Y assessed as cell growth inhibition; assay type: functional
[4] = Antiproliferative activity against mouse 32D cells expressing FLT3-ITD assessed as cell growth inhibition; assay type: functional
[5] = Antiproliferative activity against mouse 32D cells expressing FLT3-ITD-F691L assessed as cell growth inhibition; assay type: functional
BaF3 [6] = assay: Antiproliferative activity against mouse BaF3 cells harboring FLT3 D835Y mutant assessed as cell growth inhibition; assay type: functional, cell-based
MOLM-14 = assay: Antiproliferative activity against human MOLM-14 cells harboring FLT3 F691L mutant assessed as cell growth inhibition; assay type: functional, cell-based
BaF3 [7] = assay: Antiproliferative activity against mouse BaF3 cells harboring FLT3 F691L mutant assessed as cell growth inhibition; assay type: functional, cell-based
BaF3 [8] = assay: cells; conditions: Mus musculus
Description: Antiproliferative activity against mouse BaF3 cells harboring TRKA F589L mutant assessed as cell growth inhibition

Fibroblast growth factor receptor 4, sequence (Q03142 whole entry): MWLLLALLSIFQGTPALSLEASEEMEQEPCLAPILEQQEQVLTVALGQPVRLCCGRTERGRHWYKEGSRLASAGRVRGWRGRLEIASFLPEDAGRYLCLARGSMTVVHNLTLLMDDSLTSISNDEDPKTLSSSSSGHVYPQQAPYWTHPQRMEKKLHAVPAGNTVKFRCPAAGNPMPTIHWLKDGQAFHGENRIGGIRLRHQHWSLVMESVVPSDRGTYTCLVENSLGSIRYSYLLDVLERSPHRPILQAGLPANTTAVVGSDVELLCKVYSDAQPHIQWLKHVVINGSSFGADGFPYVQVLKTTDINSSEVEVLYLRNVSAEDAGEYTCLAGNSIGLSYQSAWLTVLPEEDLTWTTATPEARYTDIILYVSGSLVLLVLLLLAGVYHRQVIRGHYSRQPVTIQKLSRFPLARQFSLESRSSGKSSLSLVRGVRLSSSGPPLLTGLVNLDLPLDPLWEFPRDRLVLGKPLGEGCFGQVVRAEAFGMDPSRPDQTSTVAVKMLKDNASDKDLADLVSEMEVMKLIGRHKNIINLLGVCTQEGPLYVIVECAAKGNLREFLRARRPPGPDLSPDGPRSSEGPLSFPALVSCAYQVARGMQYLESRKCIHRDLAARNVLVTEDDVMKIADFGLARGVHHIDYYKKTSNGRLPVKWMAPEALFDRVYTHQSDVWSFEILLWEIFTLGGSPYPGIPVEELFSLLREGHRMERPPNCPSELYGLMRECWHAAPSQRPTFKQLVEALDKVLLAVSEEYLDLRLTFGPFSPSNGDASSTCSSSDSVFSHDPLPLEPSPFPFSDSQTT
Mast/stem cell growth factor receptor Kit, sequence (P10721 whole entry): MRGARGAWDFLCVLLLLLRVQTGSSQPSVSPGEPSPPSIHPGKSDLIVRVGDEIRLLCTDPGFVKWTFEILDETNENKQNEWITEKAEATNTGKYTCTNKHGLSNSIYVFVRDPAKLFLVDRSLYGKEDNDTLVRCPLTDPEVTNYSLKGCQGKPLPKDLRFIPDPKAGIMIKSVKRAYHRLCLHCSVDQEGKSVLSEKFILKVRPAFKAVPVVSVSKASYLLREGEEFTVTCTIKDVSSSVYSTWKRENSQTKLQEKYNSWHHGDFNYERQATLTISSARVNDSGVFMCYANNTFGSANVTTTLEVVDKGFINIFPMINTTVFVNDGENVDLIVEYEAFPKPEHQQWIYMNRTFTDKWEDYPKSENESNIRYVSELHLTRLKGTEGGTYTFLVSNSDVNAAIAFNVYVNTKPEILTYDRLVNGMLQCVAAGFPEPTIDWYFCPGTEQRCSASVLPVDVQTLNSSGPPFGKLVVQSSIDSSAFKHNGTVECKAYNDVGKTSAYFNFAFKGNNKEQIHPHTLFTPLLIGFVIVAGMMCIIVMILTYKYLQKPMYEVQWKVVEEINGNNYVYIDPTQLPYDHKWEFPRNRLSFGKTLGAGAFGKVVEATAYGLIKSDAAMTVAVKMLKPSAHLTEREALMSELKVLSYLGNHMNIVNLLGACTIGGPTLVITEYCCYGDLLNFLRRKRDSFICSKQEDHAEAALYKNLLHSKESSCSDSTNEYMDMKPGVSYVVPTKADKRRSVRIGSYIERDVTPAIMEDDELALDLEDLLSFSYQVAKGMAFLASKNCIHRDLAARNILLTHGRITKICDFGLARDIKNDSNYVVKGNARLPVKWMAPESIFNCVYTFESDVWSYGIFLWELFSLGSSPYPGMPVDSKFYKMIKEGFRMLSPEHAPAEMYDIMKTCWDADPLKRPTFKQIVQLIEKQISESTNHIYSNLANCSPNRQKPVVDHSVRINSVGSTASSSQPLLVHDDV

## COCCOc1cc(F)c2c(Nc3ccc(NC(=O)Cn4cc(C(C)C)nn4)cc3)ncnc2c1
[1]
  IC50: 3 nM

## C=CC(=O)Nc1cc(N2CCC(N3CCOCC3)CC2)cc(F)c1Nc1n[nH]c2ccc(O[C@H](C)c3c(Cl)cncc3Cl)cc12
[2]
  IC50: 3.5 nM

## CCCNc1nc(Nc2ccc(C#N)cc2)ncc1C#CCCCNC(=O)[C@H](C)N(C)C(=O)/C=C/CN(C)C [FF-10101]
[3]
  GI50: 0.81 nM
[4]
  GI50: 1.9 nM
[5]
  GI50: 10 nM

## FC(F)(F)c1ccc(CNc2ccc(Cc3c[nH]c4ncc(Cl)cc34)cn2)cn1 [PEXIDARTINIB]
BaF3 [6]
  IC50: 4700 nM
MOLM-14
  IC50: 670 nM
BaF3 [7]
  IC50: 97 nM

## C[C@@H]1CCc2ncc(F)cc2[C@H]2CCCN2c2ccn3ncc(c3n2)C(=O)N1 [SELITRECTINIB]
BaF3 [8]
  IC50: 27.8 nM
